Reference: patent US20060293307A1, “Oxazolidinone derivatives as antimicrobials” (priority 2002, published 2006)
Read-outs that look alike come from different tables or passages of the source.

How the values were obtained:
M. tuberculosis PC [1] = assay: MIC against M. tuberculosis strains, agar dilution; type: cell-based, Mycobacterium tuberculosis; conditions: Mycobacterium tuberculosis, S. No. 18 Mt-, Middle Brook 7H10 + OADC, 37° C., 14-21 days, read-out: MIC
H. influenzae 23 = assay: MIC against Haemophilus strains; type: cell-based; conditions: s. No. 5, H. influenzae 23
S. pneumoniae CS 1687 = assay: MIC, agar incorporation method; type: cell-based, Streptococcus pneumoniae
S. pneumoniae AB 29 = assay: MIC, agar incorporation method; type: cell-based, Streptococcus pneumoniae
[2] = test system: S. epidermidis (MRSE) 23760; assay: MIC, agar incorporation method; type: cell-based, Staphylococcus epidermidis
S. pneumoniae AB-3 = assay: MIC, agar incorporation method; type: cell-based, Streptococcus pneumoniae
Salmonella 205 = assay: MIC, agar incorporation method; type: cell-based; conditions: S. No. 26, Salmonella 205
Procedure: The compounds of the invention display antibacterial activity when tested by the agar incorporation method. The following minimum inhibitory concentrations (μg/ml) were obtained for representative compounds of the invention which are given below in the following tables.
Briefly, the compounds were dissolved in DMSO and doubling dilution of the compounds were incorporated into Meer Hilton agar before solidification. Inoculum was prepared by suspending 4 to 5 colonies into 5 ml of normal saline solution and adjusting the turbidity to 0.5 Macfarland turbidity standard tables (1.5×10^8 CFU/ml), after appropriate dilutions, 10^4 CFU/spot was transfered into the surface of dried plate and incubated for 18 hours (24 hours for MRSN studies). The concentration showing no growth of the inoculated culture was recorded as the MIC. Appropriate ATCC standard strains were simultaneously tested and result recorded only when the MIC's against standard antibiotics were within the acceptable range.

E. faecium 6A (VRE) = assay: MIC, agar incorporation method; type: cell-based, Enterococcus faecium
[3] = test system: S. aureus (MRSA 33) Cipro R; assay: MIC, agar incorporation method; type: cell-based, Staphylococcus aureus
S. pneumoniae AB 14 = assay: MIC, agar incorporation method; type: cell-based, Streptococcus pneumoniae
M. tuberculosis SGPGI = assay: MIC against M. tuberculosis strains, agar dilution; type: cell-based, Mycobacterium tuberculosis; conditions: S. No. 07 Mt-, Middle Brook 7H10 + OADC, 37° C., 14-21 days
S. pneumoniae AB 25 = assay: MIC, agar incorporation method; type: cell-based, Streptococcus pneumoniae
S. pyogenes 20361 = assay: MIC, agar incorporation method; type: cell-based, Streptococcus pyogenes
K. oxytoca 49131 = assay: MIC, agar incorporation method; type: cell-based
S pneumoniae 1294. = assay: MIC, agar incorporation method; type: cell-based, Streptococcus pneumoniae
E. faecalis SP 346 (VRE) = assay: MIC, agar incorporation method; type: cell-based
P. aeruginosa ATCC 27853 = assay: MIC, agar incorporation method; type: cell-based
M. tuberculosis PC [4] = assay: MIC against M. tuberculosis strains, agar dilution; type: cell-based, Mycobacterium tuberculosis; conditions: S. No. 17 Mt-, Middle Brook 7H10 + OADC, 37° C., 14-21 days
S. pneumoniae AB 22 = assay: MIC, agar incorporation method; type: cell-based, Streptococcus pneumoniae
S. pneumoniae AB 10 = assay: MIC, agar incorporation method; type: cell-based, Streptococcus pneumoniae
S. aureus ATCC 25923 = assay: MIC, agar incorporation method; type: cell-based, Staphylococcus aureus
S. pneumoniae AB 34 = assay: MIC, agar incorporation method; type: cell-based, Streptococcus pneumoniae
S. pneumoniae CS1221 = assay: MIC, agar incorporation method; type: cell-based, Streptococcus pneumoniae
S. pneumoniae AB 31 = assay: MIC, agar incorporation method; type: cell-based, Streptococcus pneumoniae
M. intracellulare B-78/3 = assay: MIC against MAC strains, agar dilution; type: cell-based; conditions: S. No. 09 Mi-4, M. intracellulare B-78/3; Middle Brook 7H10 + OADC, 37° C., 14-21 days
M. avium AIIMS = assay: MIC against MAC strains, agar dilution; type: cell-based, Mycobacterium avium; conditions: S. No. 04 Ma-4, M. avium AIIMS; Middle Brook 7H10 + OADC, 37° C., 14-21 days
[5] = test system: M. avium intracellulare 926/98; assay: MIC against MAC strains, agar dilution; type: cell-based; conditions: S. No. 14 Mai-6, M. avium intracellulare 926/98; Middle Brook 7H10 + OADC, 37° C., 14-21 days
M. intracellulare F21/12 = assay: MIC against MAC strains, agar dilution; type: cell-based; conditions: S. No. 08 Mi-3, M. intracellulare F21/12; Middle Brook 7H10 + OADC, 37° C., 14-21 days
[6] = Mycobacterium tuberculosis, read-out: MIC
[7] = S. No. 44, S. pneumoniae CS 1687
[8] = S. No. 11, S. epidermidis (MRSE) 23760
[9] = S. No. 7, S. aureus (MRSA 33) Cipro R
[10] = S. No. 20, E. faecalis SP 346 (VRE)
[11] = S. No. 28, P. aeruginosa ATCC 27853
[12] = S. No. 34, S. pneumoniae CS1221

Measured: MIC

CC(=O)NC[C@H]1CN(c2ccc(N3CCOCC3)c(F)c2)C(=O)O1 [Linezolid, reference compound]
2 µg/mL: E. faecium 6A (VRE); Enterococcus faecium, VRE | E. faecalis SP 346 (VRE); Enterococcus faecalis, VRE | S. aureus ATCC 25923; Staphylococcus aureus, ATCC25923 | S. pneumoniae AB 34; Streptococcus pneumoniae, AB34
> 16 µg/mL: Salmonella 205; read-out: MIC | K. oxytoca 49131; Klebsiella oxytoca, 49131 | P. aeruginosa ATCC 27853; Pseudomonas aeruginosa, ATCC27853
0.5 µg/mL: M. tuberculosis PC [1]
1 µg/mL: S. pneumoniae CS 1687; Streptococcus pneumoniae, CS1687 | S. pneumoniae AB 29; Streptococcus pneumoniae, AB29 | [2]; Staphylococcus epidermidis, MRSE | [3]; Staphylococcus aureus, MRSA | S. pneumoniae AB 14; Streptococcus pneumoniae, AB14 | S. pneumoniae AB 25; Streptococcus pneumoniae, AB25 | S. pyogenes 20361; Streptococcus pyogenes, 20361 | S pneumoniae 1294.; Streptococcus pneumoniae, 1294. | S. pneumoniae AB 22; Streptococcus pneumoniae, AB22 | S. pneumoniae AB 31; Streptococcus pneumoniae, AB31
0.25 µg/mL: S. pneumoniae AB-3; Streptococcus pneumoniae, AB3 | S. pneumoniae AB 10; Streptococcus pneumoniae, AB10 | S. pneumoniae CS1221; Streptococcus pneumoniae, CS1221
32 µg/mL: M. tuberculosis PC [4]; [6]
16 µg/mL: H. influenzae 23; Haemophilus influenzae, read-out: MIC
> 32 µg/mL: M. tuberculosis SGPGI; [6]

CO[C@H]1/C=C/O[C@@]2(C)Oc3c(C)c(O)c4c(O)c(c(/C=N/N5CCN(C)CC5)c(O)c4c3C2=O)NC(=O)/C(C)=C\C=C\[C@H](C)[C@H](O)[C@@H](C)[C@@H](O)[C@@H](C)[C@H](OC(C)=O)[C@@H]1C [RIF]
>32 µg/mL: M. tuberculosis SGPGI
2.0 µg/mL: M. tuberculosis PC [4]
0.25 µg/mL: M. intracellulare B-78/3 | [5]
4.0 µg/mL: M. avium AIIMS | M. intracellulare F21/12

O=C(NC[C@H]1CN(c2ccc(N3CCN(c4ccc([N+](=O)[O-])s4)CC3)c(F)c2)C(=O)O1)C(Cl)Cl [compound 9, (S)—N-[[3-[-3-Fluoro-4-[N-1-(5-nitro-2-thienyl)-piperazinyl]phenyl] -2-oxo-5-oxazolidinyl]methyl]dichloroacetamide]
0.25 µg/mL: S. pneumoniae AB 29; S. No. 46, S. pneumoniae AB 29 | S. pneumoniae AB-3; S. No. 32, S. pneumoniae AB-3 | S. pneumoniae AB 14; S. No. 37, S. pneumoniae AB 14 | S. pneumoniae AB 25; S. No. 45, S. pneumoniae AB 25 | S. pneumoniae AB 22; S. No. 42, S. pneumoniae AB 22 | S. pneumoniae AB 10; S. No. 35, S. pneumoniae AB 10 | S. pneumoniae CS1221; [12] | S. pneumoniae AB 31; S. No. 36, S. pneumoniae AB 31
>16 µg/mL: H. influenzae 23
2 µg/mL: S. aureus ATCC 25923; S. No. 1, organism cell empty
>8 µg/mL: Salmonella 205 | K. oxytoca 49131; S. No. 27, K. oxytoca 49131 | P. aeruginosa ATCC 27853; [11]
0.5 µg/mL: S. pneumoniae CS 1687; [7] | [2]; [8] | E. faecium 6A (VRE); S. No. 21, E. faecium 6A (VRE) | S. pyogenes 20361; S. No. 53, S. pyogenes 20361 | S pneumoniae 1294.; S. No. 55, S pneumoniae 1294. | E. faecalis SP 346 (VRE); [10] | S. pneumoniae AB 34; S. No. 49, S. pneumoniae AB 34
1 µg/mL: [3]; [9]

(S)—N-[[3-[-3-Fluoro-4-[(5-nitro-2-thienyl)-3-methyl-1-piperazinyl]phenyl]-2-oxo-5-oxazolidinyl]methyl]acetamide [Compound No. 10]
1 µg/mL: E. faecium 6A (VRE); S. No. 21, E. faecium 6A (VRE) | [3]; [9] | E. faecalis SP 346 (VRE); [10] | S. aureus ATCC 25923; S. No. 1, organism cell empty | S. pneumoniae AB 34; S. No. 49, S. pneumoniae AB 34
>16 µg/mL: H. influenzae 23
0.5 µg/mL: S. pneumoniae CS 1687; [7] | S. pneumoniae AB 29; S. No. 46, S. pneumoniae AB 29 | [2]; [8] | S. pneumoniae AB-3; S. No. 32, S. pneumoniae AB-3 | S. pneumoniae AB 14; S. No. 37, S. pneumoniae AB 14 | S. pneumoniae AB 25; S. No. 45, S. pneumoniae AB 25 | S. pyogenes 20361; S. No. 53, S. pyogenes 20361 | S pneumoniae 1294.; S. No. 55, S pneumoniae 1294. | S. pneumoniae AB 22; S. No. 42, S. pneumoniae AB 22 | S. pneumoniae CS1221; [12] | S. pneumoniae AB 31; S. No. 36, S. pneumoniae AB 31
>8 µg/mL: Salmonella 205 | K. oxytoca 49131; S. No. 27, K. oxytoca 49131 | P. aeruginosa ATCC 27853; [11]
0.25 µg/mL: S. pneumoniae AB 10; S. No. 35, S. pneumoniae AB 10
